Laboratory results from patent US9925202B2, “Treatment of lymphangioleiomyomatosis” (THE BRIGHAM AND WOMEN'S HOSPITAL, INC., priority 2013, dated 2018).

Key:
[1] = test system: LAM patient-derived 621-101 cells; assay: Proliferation of 621-101 cells; format: cell-based, human
Method: (§1) Cell culture and reagents. ELT-3 cells (Eker rat uterine leiomyoma-derived) (22,23) and LAM patient-derived 621-101 cells were cultured in IIA complete medium. HeLa, U2OS and OVARC5 cells were cultured in DMEM supplemented with 10% FBS. 17-beta-estradiol (10 nM), rapamycin (20 nM, Biomols), NS398 (50 μM), aspirin (450 μM Sigma), and 15-epi-LXA4 (100 nM) were used as indicated.

[2] = test system: A549 cells (Human lung adenocarcinoma); conditions: reference 18; cited from earlier work
[3] = test system: LAM patient-derived TSC2-deficient 621-101 cells; assay: COX, phospho-protein and secreted prostaglandin levels in 621-101 cells (immunoblot, enzyme immunoassay); format: cell-based, human; conditions: 24 hr; for COX-1 levels / COX-2 levels / phosphorylation of MAPK or S6: 50 μM NS398 or 450 μM aspirin, immunoblot
Method: as §1
(§2) Immunoblotting and antibodies. Cells were lysed in m-PER buffer (PIERCE). Antibodies were used: COX-1, COX-2, phospho-MAPK (T202/Y204), phospho-S6 (S235/236), Cleaved caspase 3, cleaved PARP (CELL SIGNALING), tuberin and c-Myc (SANTA CRUZ), smooth muscle actin (BIOGENEX), and beta-actin (SIGMA).
(§3) Quantification of prostaglandin levels. PGE2, 6-keto-PGF1α and creatinine were measured using enzyme immunoassay kits (Cayman Chemical). Levels of secreted prostaglandins were normalized to protein concentrations and expressed as pg/mg protein. Urinary levels of prostaglandins were normalized to creatinine levels and expressed as […].

TSC2-deficient cells = assay: COX-2 activation and prostaglandin production in TSC2-deficient cells with Torin 1; format: cell-based; conditions: specifically to TSC2-deficient cells
[4] = test system: xenograft tumors of TSC2-deficient ELT3-luciferase-expressing cells; assay: Aspirin in xenograft tumor model of ELT3-luciferase-expressing cells; format: in vivo, mice
Method: Animal studies. All animal work was performed in accordance with protocols approved by the IACUC-BWH. Female intact CB17-SCID mice were used as described previously (8, 24, 25). Aspirin (100 mg/kg/day, in drinking water) treatment was initiated five weeks post-cell inoculation. Urine specimens were collected.
as §2, §3
Statistical analyses. Statistical analyses were performed using Student's t-test when comparing two groups for in vitro and in vivo studies. Two-Way ANOVO test was performed in xenograft tumor-aspirin studies. Mann Whitney tests were used for prostaglandin quantification in clinical data.
To determine whether inhibition of COX-1 and/or COX-2 impacts the growth of LAM patient-derived cells, 621-101 cells were treated with Sulindac (a COX-1 inhibitor), NS398 (a COX-2 inhibitor), or aspirin (an irreversible COX-1 and COX-2 inhibitor) for 24 hr. […] The inventors next assessed the possible benefit of aspirin in a xenograft tumor model of TSC2-deficient ELT3-luciferase-expressing cells. Aspirin treatment for two-three weeks decreased the intensity of bioluminescence (FIG. 3c), reduced the growth of xenograft tumors by 35% (FIG. 3d), and decreased the tumor size (FIG. 3e). Tumors also had reduced expression of COX-2 and c-Myc, and increased levels of cleaved-caspase-3 and cleaved-PARP (Data not shown).

[5] = test system: tumors of TSC2-deficient LAM patient-derived cells; assay: Metastatic tumor model of LAM derived cells; format: in vivo, mice; conditions: aspirin treatment
Method: Arrows indicate individual tumors.
Bioluminescent imaging was performed weekly. Tumor area was normalized to the baseline before drug administration.
FIGS. 3f and 3g show the urinary PGE2 that was quantified from mice treated with aspirin or vehicle for 7 and 30 days. *p<0.05.

LAM patients = assay: Exhaled breath condensate and lung function in LAM patients on aspirin; format: in vivo, human
Method: To examine the functional effect of COX-2 in LAM lungs, 15-epi-lipoxin A4 (LXA4), a product of aspirin-acetylated COX-2, was measured in exhaled breath condensate (EBC) from three LAM subjects (data not shown). 15-epi-LXA4 was detected in EBC and the levels were increased with aspirin (data not shown).

[6] = aspirin 100 mg/kg/day in drinking water, two-three weeks
[7] = aspirin-treated mice, data not shown
[8] = LAM patients, aspirin treatment

Question: For CCCCC[C@@H](O)/C=C/C=C\C=C\C=C\[C@@H](O)[C@@H](O)CCCC(=O)O [15-epi-LXA4, 15-epi-lipoxin A4], which “proliferation of LAM patient-derived 621-101 cells” value ([1]; 15-epi-LXA4 100 nM, data not shown) is on record?
Answer: suppressed

Question: And the “proliferation of A549 cells” value [2]?
Answer: decreases

Question: Which results are given for CS(=O)(=O)Nc1ccc([N+](=O)[O-])cc1OC1CCCCC1 [NS398]?
Answer: COX-1 levels [3]: reduced; COX-2 levels [3]: reduced; phosphorylation of MAPK or S6 [3]: without affecting

Question: For CCC(=O)N1CCN(c2ccc(-n3c(=O)ccc4cnc5ccc(-c6cnc7ccccc7c6)cc5c43)cc2C(F)(F)F)CC1 [Torin 1], which “COX-2 activation and prostaglandin production” value (TSC2-deficient cells) is on record?
Answer: suppresses

Question: What does the source list for CC(=O)Oc1ccccc1C(=O)O [aspirin]?
Answer: COX-1 levels [3]: reduced; COX-2 levels [3]: reduced; phosphorylation of MAPK or S6 [3]: without affecting; PGE2 levels ([3]; aspirin 450 μM, conditioned media, ELISA): significantly decreased; proliferation of 621-101 cells ([1]; aspirin 450 μM): reduced; intensity of bioluminescence [4, 6]: decreased; reduction of growth of xenograft tumors [4, 6]: 35%; tumor size [4, 6]: decreased; urinary levels of PGE2 and 6-Keto-PGF1α ([4]; aspirin-treated mice bearing ELT3 xenograft tumors, data not shown): markedly reduced; apoptosis in xenograft tumors ([4]; aspirin-treated mice compared to vehicle-treatment): higher levels; expression of COX-2 and c-Myc in tumors [4, 7]: reduced; levels of cleaved-caspase-3 and cleaved-PARP in tumors [4, 7]: increased; growth of tumors of LAM derived cells [5]: decreased; urinary prostaglandins [5]: reduction; lung function (LAM patients; [8]): improved; prostaglandin levels in exhaled breath condensate (LAM patients; [8]): reduced; 15-epi-LXA4 levels in exhaled breath condensate (EBC) (LAM patients; three LAM subjects, oral aspirin ingestion, data not shown): increased
